{"source": "patent US20260007609A1", "about": "“METHOD FOR PRODUCING EXTRACELLULAR VESICLES CONTAINING BIOACTIVE SUBSTANCE” (The University of Tokyo, priority 2022, published 2026)", "type_in_all_cases": "cell-based", "key": {"NIH3T3 cells [1]": {"test_system": "NIH3T3 cells", "test": "Fluorescence microscopy of extracellular structures containing Shh and Hsp90", "settings": "40 μM, 24 hours, vs DMSO", "procedure": "(§1) As for light microscopic observation, cells were plated on a 35-mm glass-bottomed dish (Matsunami, Japan, #D11130H) that had been pre-coated with poly-L-lysine (1:1,000, Sigma, #P4707) for 1 hour. Immunofluorescence labelling was performed using the antibodies described above. Briefly, cells were incubated with the primary antibody overnight at 4° C., and with the secondary antibody for 1 hour, followed by washing with PBS three times for 5 minutes for each washing. Thereafter, as mentioned above, using a spinning disc confocal microscope (Yokogawa/ZEISS) or an LSM780 confocal microscope equipped with Airyscan, the cells were observed. Three dimensional reconstruction of the cells was performed using Imaris 8 software (Bitplane).\nThe morphological characteristics of Shh-EVs mediated by Hsp90 secreted from CID1067700-treated cells were observed. Both Shh-tagRFP and Hsp90-EGFP were transduced into NIH3T3 cells, and the effects obtained by treating the cells with CID1067700 for 24 hours were compared. The cells were fixed the cells and were then photographed by z-stacks, and a three-dimensional model was then constructed. […] Since these structures were observed after the medium was removed and the cells were fixed, they are thought to interact with the cells as intermediate structures in the process of extracellular vesicle release. […]"}, "[2]": {"test_system": "human mesenchymal stem cells", "test": "Transmission electron microscopy of hMSC-EV pellets", "settings": "TEM histogram of particle sizes larger than 100 nm, vs DMSO", "procedure": "Observation by transmission electron microscopy (TEM) was performed according to previously reported standard methods (Nonaka et al., Cell 95, 829-837, 1998; Takei et al., The Journal of cell biology 131, 1789-1800, 1995). A precipitate of extracellular vesicles was fixed in Half Kalnovsky fixative at 37° C. for 10 min and then at 4° C. overnight, followed by post-fixation with 1% OsO4 (in 0.1 M cacodylate buffer (pH 7.4)) on ice for 1.5 hours. Thereafter, the sample was subjected to electron staining with 1% uranyl acetate for 1 hour, and was then dehydrated using a graded ethanol series. Finally, the dehydrated extracellular vesicle sample was embedded in Quetol-812 (Nisshin EM), was then cut into ultrathin sections, was then electron-stained with uranyl acetate and lead citrate, and was then observed using a JEM2000 microscope at 100 keV, or using a JEM-1400Flash microscope at 80 keV. Next, the extracellular vesicle pellets were observed using TEM (FIG. 4). In addition to conventionally known small (approximately 100 nm in diameter) exosome-like particles, particles with a low electron density (bright) and a diameter of larger than 800 nm were contained in the extracellular vesicle fraction derived from human mesenchymal stem cells treated with CID1067700, and the particles tended to be surrounded with a lipid double layer (FIGS. 4A and 4B)."}, "[3]": {"test_system": "human mesenchymal stem cells", "test": "Nanoparticle tracking analysis (NTA) of culture supernatant of human mesenchymal stem cells", "procedure": "(§2) Human mesenchymal stem cells were plated on three 10-cm cell culture dishes at a density of 5,000 to 6,000 cells/cm^2. Six days after initiation of the culture, per dish, the medium was replaced with the EV Production Basal Medium (FUJIFILM-Wako, #053-09451 and #298-84001), to which 10 mL of supplements had been added (wherein a new medium to be replaced comprised an additive compound, as appropriate). After 24 hours of culture under conditions of 5% CO2 and 37° C., the medium was recovered, and was then centrifuged at 2,000×g for 30 minutes at 4° C. to remove the cell debris. Using a Millipore Amicon Ultra 30,000 MWCO filter (Pall, #MAP030C37), the resultant was centrifuged at 4,000×g for 60 minutes at 4° C., so that it was condensed to 1 ml. To the condensed culture supernatant, 500 μL of Total Exosome Isolation Reagent (Invitrogen, #4478359) was added, and the obtained mixture was then incubated overnight, while mixing it by inverting. The solution that had been mixed overnight was centrifuged at 10,000×g for at least 1 hour, and the extracellular vesicles were harvested as a precipitate, which was then resuspended in 30 μL of PBS. The obtained extracellular vesicles were preserved at 4° C. and were then used in experiments within 1 week.\nThe above-described culture supernatant was diluted with PBS, and was then analyzed using Zetaview Nanoparticle Tracking Analysis Instrument (Particle Metrix, Germany). The collected data were analyzed and diagrammatized using Prism software (Graphpad, ver. 7 and 9.3.1).\nFirst, human mesenchymal stem cells were cultured for 24 hours in a basic medium for EV production (FUJIFILM-Wako) supplemented with supplements in the presence or absence of CID1067700, and NTA was performed using the culture supernatant after removing impurities by centrifugation (FIG. 3). Using ZetaView system capable of counting extracellular vesicles with a large particle diameter such as approximately 1 μm, the measurement was performed at the “highest” mode. […]"}, "NIH3T3 cells [4]": {"test_system": "NIH3T3 cells", "test": "Immunostaining of ceramide", "procedure": "as §1\nIn order to investigate whether nSMase2 activity is influenced by the CID1067700 treatment, NIH3T3 cells were treated with CID1067700 and/or GW4869, and immunostaining of ceramide was then performed (FIG. 6)."}, "[5]": {"test_system": "ShhN-EGFP transduced NIH3T3 fibroblasts", "test": "In vitro extracellular vesicle release imaging (Shh-EV tracking)", "procedure": "(§3) CID1067700 (#SML0545-5MG) was purchased from Sigma-Aldrich, was solubilized at 40 mM in DMSO, and was added to cells to a final concentration of 40 μM, followed by performing culture for 24 hours. GW4869 (#13127) was purchased from Cayman Chemical, was solubilized at 5 mM in DMSO, and was added to cells to a final concentration of 1.25 μM, followed by performing culture for 24 hours. TAS116 (#HY-15785) was purchased from MedChemExpress, was solubilized at 1 mM in DMSO and was added to cells to a final concentration of 0.5 μM, followed by performing culture for 48 hours.\nIn order to monitor the Brownian motion of Shh extracellular particles, NIH3T3 cells were plated at 1×10^4 cells/well onto an 8-well LabTek II Chamber #1.5 German Coverglass System pre-coated with poly-L-lysine. On the 3rd day of the culture, an adenoviral Shh-N-EGFP expression vector was introduced into the NIH3T3 cells. […] Twenty-four hours after the medium replacement, time-lapse imaging was performed using a spinning disc microscope (Yokogawa/ZEISS) according to the previous report (Tanaka et al., Neuron 90, 1215-1229, 2016) under conditions of 5% CO2 and 37° C. at intervals of 5 seconds. Shh extracellular vesicles with Brownian motion were identified using Imaris 8 software (Bitplane) and were then quantified.\nExtracellular vesicles with a large particle diameter, which contain Shh, were visualized by live cell imaging in ShhN-EGFP transduced NIH3T3 fibroblasts treated with CID1067700 (FIG. 5).\nThese particles were automatically tracked and were identified as extracellular vesicles released from cells under drug (CID1067700, GW4869, or TSA116) addition conditions (FIGS. 5B to 5I). […] However, this increase in the released amount of Shh-EVs due to the CID1067700 treatment disappeared, when the cells were treated with […] TSA116 (Hsp90 inhibitor) for 48 hours or with 1.25 μM GW4869 (nSMase2 inhibitor) for 24 hours (FIG. 5J)."}, "[6]": {"test_system": "human mesenchymal stem cells", "test": "Immunoblotting of extracellular vesicle fraction from culture supernatant of treated human mesenchymal stem cells", "settings": "40 μM, 24 hours, compared to DMSO", "procedure": "as §3, §2\nImmunoblotting was performed according to the previous report (Yin et al., Neuron 70, 310-325, 2011). […] The bands were detected using an ImageQuant LAS 4000 mini system (GE Healthcare Life Sciences, USA) and were then quantified using ImageJ software. […]"}, "[7]": {"settings": "culture supernatant, 24 hours treatment, n=4"}}, "note": "Entries after “also recorded” stand apart in the source; their conditions may differ.", "data": [{"smiles": "CC1(C)Cc2c(sc(NC(=S)NC(=O)c3ccccc3)c2C(=O)O)CO1", "note": "[CID1067700, 2-(benzoylcarbamothioylamino)-5,5-dimethyl-4,7-dihydrothieno[2,3-c]pyran-3-carboxylic acid]", "values": [{"measurement": "cells with extracellular structures containing Hsp90 and Shh", "setting": "NIH3T3 cells [1]", "value": "significantly increased"}, {"measurement": "number of large-size extracellular vesicles", "setting": "[2]", "value": "significantly increased"}, {"measurement": "extracellular vesicles with a diameter of 100 to 800 nm per ml", "setting": "[3]; [7]", "value": "3.2±1.9×10^8 particles/ml"}, {"measurement": "extracellular vesicles with a diameter of larger than 800 nm", "setting": "[3]; [7]", "value": "6.6±2.2×10^7 particles/ml"}, {"measurement": "number of extracellular vesicles with a particle diameter of greater than 800 nm", "setting": "[3]; result in words, vs DMSO alone", "value": "significantly increased"}, {"measurement": "expression level of ceramide in the cytoplasm", "setting": "NIH3T3 cells [4]; 24 hours of treatment (40 μM), compared to DMSO alone", "value": "significantly increased"}, {"measurement": "number of Shh-EVs", "setting": "[5]; 24 hours of treatment, compared to control (DMSO treatment)", "value": "significantly increased"}, {"measurement": "amount of Shh in the extracellular vesicles released from the cells", "setting": "[6]", "value": "significantly elevated"}, {"measurement": "amount of the general exosome marker Hsp90 in extracellular vesicles", "setting": "[6]", "value": "largely unaltered"}, {"measurement": "amount of the general exosome marker TSG101 in extracellular vesicles", "setting": "[6]", "value": "largely unaltered"}]}, {"smiles": "O=C(/C=C/c1ccc(/C=C/C(=O)Nc2ccc(C3=NCCN3)cc2)cc1)Nc1ccc(C2=NCCN2)cc1", "note": "[GW4869]", "values": [{"measurement": "increase in the expression level of ceramide caused by CID1067700", "setting": "NIH3T3 cells [4]; simultaneous treatment with GW4869 (2.5 μM), 24 hours", "value": "significantly suppressed; also recorded: offset"}, {"measurement": "increase in the released amount of Shh-EVs due to the CID1067700 treatment", "setting": "[5]; co-treatment with 1.25 μM GW4869 for 24 hours", "value": "disappeared"}]}, {"smiles": "CCc1cc(C(N)=O)ccc1-n1nc(C(C)C)c2c(-n3cnc(-c4cnn(C)c4)c3)ccnc21", "note": "[TSA116]", "values": [{"measurement": "increase in the released amount of Shh-EVs due to the CID1067700 treatment", "setting": "[5]; co-treatment with 5 μM TSA116 for 48 hours", "value": "disappeared"}]}]}
